Measured values reported in PMC3433420 (PLoS ONE, 2012).
Residues, ends and D or L forms follow the SMILES beside them.

Experiments:
SH2 and PTB domains [1] = molecular target: T1, SH2 and PTB domains (Homo sapiens, UniProt P19174); assay: In-house protein microarrays (with or without 5 mM DTT), protein named per line; format: binding
T1 construct: thioredoxin; made in house; host or cells: BL21(DE3)pLysS E. coli
T1 sequence (P19174 1-1290): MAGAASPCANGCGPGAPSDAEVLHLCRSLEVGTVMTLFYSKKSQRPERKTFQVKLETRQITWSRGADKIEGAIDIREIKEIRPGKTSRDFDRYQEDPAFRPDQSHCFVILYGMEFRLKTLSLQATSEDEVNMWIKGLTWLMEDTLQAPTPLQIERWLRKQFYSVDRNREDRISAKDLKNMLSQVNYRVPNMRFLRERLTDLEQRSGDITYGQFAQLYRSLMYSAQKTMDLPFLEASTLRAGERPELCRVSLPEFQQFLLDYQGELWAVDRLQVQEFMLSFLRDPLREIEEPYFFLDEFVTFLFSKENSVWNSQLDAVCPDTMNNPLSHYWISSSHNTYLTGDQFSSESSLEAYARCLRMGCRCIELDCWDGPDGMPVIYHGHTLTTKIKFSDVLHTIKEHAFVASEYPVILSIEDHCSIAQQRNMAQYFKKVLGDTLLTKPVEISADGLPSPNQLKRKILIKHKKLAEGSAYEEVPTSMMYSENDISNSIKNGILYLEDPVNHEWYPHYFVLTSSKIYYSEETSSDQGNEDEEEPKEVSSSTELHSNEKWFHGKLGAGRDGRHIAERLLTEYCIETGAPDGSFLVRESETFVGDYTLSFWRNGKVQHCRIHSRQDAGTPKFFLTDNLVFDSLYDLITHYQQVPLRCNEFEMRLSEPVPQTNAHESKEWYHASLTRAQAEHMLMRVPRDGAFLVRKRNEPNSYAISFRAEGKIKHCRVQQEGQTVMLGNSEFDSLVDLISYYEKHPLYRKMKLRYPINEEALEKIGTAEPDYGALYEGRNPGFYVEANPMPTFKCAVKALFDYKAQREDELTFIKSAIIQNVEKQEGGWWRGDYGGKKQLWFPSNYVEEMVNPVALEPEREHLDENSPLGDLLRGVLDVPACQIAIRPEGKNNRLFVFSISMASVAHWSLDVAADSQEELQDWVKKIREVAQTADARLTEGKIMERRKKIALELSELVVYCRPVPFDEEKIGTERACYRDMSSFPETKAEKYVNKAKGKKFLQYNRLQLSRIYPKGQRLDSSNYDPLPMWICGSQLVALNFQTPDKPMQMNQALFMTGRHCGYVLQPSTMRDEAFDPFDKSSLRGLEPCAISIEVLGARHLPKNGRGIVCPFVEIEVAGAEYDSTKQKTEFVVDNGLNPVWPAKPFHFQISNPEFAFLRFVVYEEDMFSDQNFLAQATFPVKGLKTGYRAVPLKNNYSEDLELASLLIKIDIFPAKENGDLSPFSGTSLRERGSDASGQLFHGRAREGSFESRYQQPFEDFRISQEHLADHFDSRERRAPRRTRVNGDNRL
Method in brief: (§1)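 Recombinant domains (~40 µM) spotted in duplicate on aldehyde slides, quenched 1 h at room temperature in HEPES/KCl/Tween-20 buffer pH 7.8 with 5 mM DTT and 1% BSA, then probed with rhodamine-labeled peptide. Thioredoxin-subtracted mean fluorescence fitted for KD.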

SH2 and PTB domains [2] = molecular target: T2, SH2 and PTB domains (Homo sapiens, UniProt P42680); assay: as above; format: binding; conditions: protein TEC
T2 construct: thioredoxin; made in house; host or cells: BL21(DE3)pLysS E. coli
T2 sequence (P42680 1-631): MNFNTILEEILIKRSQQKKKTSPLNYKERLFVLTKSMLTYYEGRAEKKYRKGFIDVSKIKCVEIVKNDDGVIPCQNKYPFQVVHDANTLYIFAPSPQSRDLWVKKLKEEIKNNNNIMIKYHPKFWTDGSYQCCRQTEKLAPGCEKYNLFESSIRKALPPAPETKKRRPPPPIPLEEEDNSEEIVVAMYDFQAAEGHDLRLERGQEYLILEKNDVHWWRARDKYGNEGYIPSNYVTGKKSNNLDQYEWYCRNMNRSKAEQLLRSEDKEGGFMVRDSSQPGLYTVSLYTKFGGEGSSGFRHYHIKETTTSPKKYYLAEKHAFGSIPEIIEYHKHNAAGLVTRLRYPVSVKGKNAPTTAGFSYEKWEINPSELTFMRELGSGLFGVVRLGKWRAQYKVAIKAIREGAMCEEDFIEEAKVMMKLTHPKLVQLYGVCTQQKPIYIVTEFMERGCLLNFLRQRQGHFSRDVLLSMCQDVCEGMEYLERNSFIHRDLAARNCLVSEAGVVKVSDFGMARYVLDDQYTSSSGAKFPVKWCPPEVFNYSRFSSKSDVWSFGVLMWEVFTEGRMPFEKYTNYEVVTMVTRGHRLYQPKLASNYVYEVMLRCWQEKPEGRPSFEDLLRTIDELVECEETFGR
Method in brief: as §1

[3] = PM assay replicate # 39336, array fabrication # 39329

| Structure (SMILES) | Kd (SH2 and PTB domains [1]; protein PLCG1-C, PM assay replicate # 39307, array fabrication # 39286) | Kd (SH2 and PTB domains [2]; PM assay replicate # 39331, array fabrication # 39329) | Kd (SH2 and PTB domains [2]; [3]) | Kd (SH2 and PTB domains [1]; protein PLCG1-C, PM assay replicate # 39336, array fabrication # 39329) | Kd (SH2 and PTB domains [1]; protein PLCG1-C, PM assay replicate # 39337, array fabrication # 39329) | Kd (SH2 and PTB domains [1]; protein PLCG1-NC, PM assay replicate # 39336, array fabrication # 39329) | Kd (SH2 and PTB domains [1]; protein PLCG1-NC, PM assay replicate # 39337, array fabrication # 39329) | Kd (SH2 and PTB domains [2]; PM assay replicate # 39337, array fabrication # 39329) | Kd (SH2 and PTB domains [2]; PM assay replicate # 39603, array fabrication # 39392) |
| --- | --- | --- | --- | --- | --- | --- | --- | --- | --- |
| CCN(CC)c1ccc2c(-c3ccc(C(=O)N[C@@H](CC(N)=O)C(=O)NCC(=O)N4CCC[C@H]4C(=O)N4CCC[C@H]4C(=O)N[C@@H](CCCCN)C(=O)N[C@@H](C)C(=O)N[C@@H](CCC(=O)O)C(=O)N[C@@H](CC(=O)O)C(=O)N[C@@H](CCC(=O)O)C(=O)N[C@@H](Cc4ccc(OP(=O)(O)O)cc4)C(=O)N[C@H](C(=O)N[C@@H](CC(N)=O)C(=O)N[C@@H](CCC(=O)O)C(=O)N4CCC[C@H]4C(=O)N[C@@H](CC(C)C)C(=O)N[C@@H](Cc4ccc(O)cc4)C(=O)N[C@@H](CC(C)C)C(=O)N[C@@H](CC(=O)O)C(=O)O)C(C)C)cc3C(=O)[O-])c3ccc(=[N+](CC)CC)cc-3oc2c1 [ErbB4 1202 (18-mer)] (HELM PEPTIDE1{[CCN(CC)c1ccc2c(-c3ccc(C(=O)[*:2])cc3C(=O)[O-])c3ccc(=[N+](CC)CC)cc-3oc2c1].N.G.P.P.K.A.E.D.E.[O=C([C@H](Cc1ccc(OP(=O)(O)O)cc1)N[*:1])[*:2]].V.N.E.P.L.Y.L.D}$$$$V2.0) | 1260 nM |  |  |  |  |  |  |  |  |
| CC(C)C[C@H](NC(=O)[C@@H]1CCCN1)C(=O)N[C@@H](CCC(N)=O)C(=O)N[C@@H](CCCNC(=N)N)C(=O)N[C@@H](Cc1ccc(OP(=O)(O)O)cc1)C(=O)N[C@@H](CO)C(=O)N[C@@H](CCC(=O)O)C(=O)N[C@@H](CC(=O)O)C(=O)N1CCC[C@H]1C(=O)N[C@H](C(=O)N[C@H](C(=O)N1CCC[C@H]1C(=O)N[C@@H](CC(=O)O)C(=O)O)C(C)C)[C@@H](C)O [ErbB2 pY1112] (HELM PEPTIDE1{P.L.Q.R.[O=C([C@H](Cc1ccc(OP(=O)(O)O)cc1)N[*:1])[*:2]].S.E.D.P.T.V.P.D}$$$$V2.0) |  | 26530 nM | 5070 nM |  |  |  |  |  |  |
| CC(C)C[C@H](NC(=O)[C@@H]1CCCN1C(=O)[C@H](C)NC(=O)[C@@H](NC(=O)[C@H](Cc1ccc(OP(=O)(O)O)cc1)NC(=O)CNC(=O)[C@H](CC(=O)O)NC(=O)[C@@H](NC(=O)[C@@H](N)CCC(=O)O)[C@@H](C)O)C(C)C)C(=O)N[C@H](C(=O)N[C@@H](CS)C(=O)N[C@@H](CO)C(=O)N[C@@H](CC(=O)O)C(=O)O)[C@@H](C)O [ErbB2 pY1127] |  |  | 1600 nM | 4090 nM | 110 nM | 8820 nM | 1920 nM | 40 nM | 250 nM |
